Laboratory results from PMC5514901, “Synthesis and evaluation of anthranilamide-based derivatives as FXa inhibitors” (Oncotarget, 2017).
pIC50: −log10 of the molar value.

Experiments:
human FXa = biological target: T1, human FXa (Homo sapiens, UniProt P00742); assay: Inhibition activity measurement against FXa (chromogenic substrate CS-11(22)); assay type: biochemical; conditions: for pIC50: human FXa, chromogenic substrate, 37°C, read at 405 nm; for FXa inhibitory activity (in words): SAR statement in text
T1 construct: purchased Hyphen BioMed
T1 sequence (P00742 235-488 limits assumed): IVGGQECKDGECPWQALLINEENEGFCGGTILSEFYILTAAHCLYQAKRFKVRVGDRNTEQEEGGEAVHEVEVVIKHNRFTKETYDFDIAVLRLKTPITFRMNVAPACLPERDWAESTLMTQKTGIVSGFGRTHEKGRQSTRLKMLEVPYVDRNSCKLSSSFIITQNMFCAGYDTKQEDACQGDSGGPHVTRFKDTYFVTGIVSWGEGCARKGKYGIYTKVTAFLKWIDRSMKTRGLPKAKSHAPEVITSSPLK
T1 sequence (P00742 41-179 partner limits assumed): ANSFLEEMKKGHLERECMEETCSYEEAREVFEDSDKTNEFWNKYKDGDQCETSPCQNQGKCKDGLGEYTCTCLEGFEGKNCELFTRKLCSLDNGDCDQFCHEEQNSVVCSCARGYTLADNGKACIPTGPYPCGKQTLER
Method: The inhibition of FXa was measured using human FXa (Hyphen BioMed, city, Paris, FRA) and chromogenic substrate CS-11(22) (Hyphen BioMed, Paris, FRA) in 384-well microtiter plates at room temperature. […] 2 μL of FXa (56.8 nM), 16 μL of Tris buffer (adjust to pH 7.4 with HCl containing 0.3 M NaCl and 50 mM Tris) and 3 μL of test compound were added to the well, respectively. The negative control was composed of the same mixed solutions except replacing test compound with DMSO. […] After incubated at 37°C for 5 min, 8 μL of FXa substrate solution (3.5 mM) was added and then incubated at 37°C for 25 min. The FXa activity was measured at 405 nm using a SpectraMax M5 (Molecular Devices, Sunnyvale, CA, USA). The IC50 was calculated by the software named SPSS (IBM, North Castle, NY, USA) and the Probit function in it.

| SMILES | pIC50 (human FXa) | melting point | FXa inhibitory activity (in words) (human FXa) |
| --- | --- | --- | --- |
| O=C(Nc1ccc(Cl)cc1C(=O)Nc1ccc(-n2ccccc2=O)cc1)c1ccc(Br)s1 [6a-a, 5-bromo-N-(4-chloro-2-((4-(2-oxopyridin-1(2H)-yl)ph-enyl)carbamoyl)phenyl)thiophene-2-carboxamide] | 6.92 | > 250 °C |  |
| Cc1cccc(C(=O)Nc2ccc(-n3ccccc3=O)cc2)c1NC(=O)c1ccc(Br)s1 [6a-c, 5-bromo-N-(2-methyl-6-((4-(2-oxopyridin-1(2H)-yl)ph-enyl)carbamoyl)phenyl)thiophene-2-carboxamide] | < 6.00 | > 250 °C | poor IC50 values at a micromole level |
| O=C(Nc1ccccc1C(=O)Nc1ccc(N2CCOCC2=O)cc1)c1ccc(Br)s1 [6a-d, 5-bromo-N-(2-((4-(3-oxomorpholino)phenyl)carbamo-yl)phenyl)thiophene-2-carboxamide] | 6.95 | > 250 °C |  |
| Cc1ccc(NC(=O)c2ccc(Br)s2)c(C(=O)Nc2ccc(N3CCOCC3=O)cc2)c1 [6a-f, 5-bromo-N-(4-methyl-2-((4-(3-oxomorpholino)phenyl)carbamoyl)phenyl)thiophene-2-carboxamide] | 7.26 | > 250 °C |  |
| Cc1cccc(C(=O)Nc2ccc(N3CCOCC3=O)cc2)c1NC(=O)c1ccc(Br)s1 [6a-g, 5-bromo-N-(2-methyl-6-((4-(3-oxomorpholino)phenyl)carbamoyl)phenyl)thiophene-2-carboxamide] | < 6.00 | > 250 °C | poor IC50 values at a micromole level |
| Cc1ccc(C(=O)Nc2ccccc2C(=O)Nc2ccc(-n3ccccc3=O)cc2)s1 [6b, 5-methyl-N-(2-((4-(2-oxopyridin-1(2H)-yl)phenyl)carb-amoyl)phenyl)thiophene-2-carboxamide] | < 6.00 | > 250 °C |  |
| O=C(Nc1ccccc1C(=O)Nc1ccc(-n2ccccc2=O)cc1)c1ccc(Cl)o1 [6c, 5-chloro-N-(2-((4-(2-oxopyridin-1(2H)-yl)phenyl)carb-amoyl)phenyl)furan-2-carboxamide] | < 6.00 | > 250 °C |  |
| O=C(Nc1ccccc1C(=O)Nc1ccc(-n2ccccc2=O)cc1)c1ccc(Br)o1 [6d, 5-bromo-N-(2-((4-(2-oxopyridin-1(2H)-yl)phenyl)carb-amoyl)phenyl)furan-2-carboxamide] | < 6.00 | > 250 °C |  |
| O=C(Nc1ccccc1C(=O)Nc1ccc(-n2ccccc2=O)cc1)c1ccc([N+](=O)[O-])cc1 [6e, 2-(4-nitrobenzamido)-N-(4-(2-oxopyridin-1 (2H)-yl)ph-enyl)benzamide] |  | > 250 °C |  |
| N#Cc1ccc(C(=O)Nc2ccccc2C(=O)Nc2ccc(-n3ccccc3=O)cc2)cc1 [6f, 2-(4-cyanobenzamido)-N-(4-(2-oxopyridin-1(2H)-yl)phenyl)benzamide] | < 6.00 | > 250 °C |  |
| COc1ccc(C(=O)Nc2ccccc2C(=O)Nc2ccc(-n3ccccc3=O)cc2)cc1[N+](=O)[O-] [6g, 4-methoxy-3-nitro-N-(2-((4-(2-oxopyridin-1(2H)-yl)ph-enyl)carbamoyl)phenyl)benzamide] | < 6.00 | > 250 °C |  |
| O=C(Nc1ccccc1C(=O)Nc1ccc(-n2ccccc2=O)cc1)c1ccc(Cl)nc1 [6h, 6-chloro-N-(2-((4-(2-oxopyridin-1(2H)-yl)phenyl)carb-amoyl)phenyl)nicotinamide] | 6.56 | > 250 °C |  |
| O=C(Nc1ccc(Cl)cc1C(=O)Nc1ccc(-n2ccccc2=O)cc1)c1ccc(Cl)nc1 [6h-a, 6-chloro-N-(4-chloro-2-((4-(2-oxopyridin-1(2H)-yl)ph-enyl)carbamoyl)phenyl)nicotinamide] | 6.37 | > 250 °C |  |
| Cc1ccc(NC(=O)c2ccc(Cl)nc2)c(C(=O)Nc2ccc(-n3ccccc3=O)cc2)c1 [6h-b, 6-chloro-N-(4-methyl-2-((4-(2-oxopyridin-1(2H)-yl)ph-enyl)carbamoyl)phenyl)nicotinamide] | 6.67 | > 250 °C |  |
| Cc1cccc(C(=O)Nc2ccc(-n3ccccc3=O)cc2)c1NC(=O)c1ccc(Cl)nc1 [6h-c, 6-chloro-N-(2-methyl-6-((4-(2-oxopyridin-1(2H)-yl)ph-enyl)carbamoyl)phenyl)nicotinamide] | < 6.00 | > 250 °C |  |
| O=C(Nc1ccccc1C(=O)Nc1ccc(N2CCOCC2=O)cc1)c1ccc(Cl)nc1 [6h-d, 6-chloro-N-(2-((4-(3-oxomorpholino)phenyl)carbamo-yl)phenyl)nicotinamide] | < 6.00 | > 250 °C |  |
| O=C(Nc1ccc(Cl)cc1C(=O)Nc1ccc(N2CCOCC2=O)cc1)c1ccc(Cl)nc1 [6h-e, 6-chloro-N-(4-chloro-2-((4-(3-oxomorpholino)phenyl)carbamoyl)phenyl)nicotinamide] | 6.11 | > 250 °C |  |
| Cc1ccc(NC(=O)c2ccc(Cl)nc2)c(C(=O)Nc2ccc(N3CCOCC3=O)cc2)c1 [6h-f, 6-chloro-N-(4-methyl-2-((4-(3-oxomorpholino)phenyl)carbamoyl)phenyl)nicotinamide] | 6.34 | > 250 °C |  |
| Cc1cccc(C(=O)Nc2ccc(N3CCOCC3=O)cc2)c1NC(=O)c1ccc(Cl)nc1 [6h-g, 6-chloro-N-(2-methyl-6-((4-(3-oxomorpholino)phenyl)carbamoyl)phenyl)nicotinamide] | < 6.00 | > 250 °C |  |
| O=C(Nc1ccccc1C(=O)Nc1ccc(-n2ccccc2=O)cc1)c1ccc(F)c(F)c1 [6i, 3,4-difluoro-N-(2-((4-(2-oxopyridin-1(2H)-yl)phenyl)carbamoyl)phenyl)benzamide] | < 6.00 | > 250 °C |  |
| O=C(Nc1ccccc1C(=O)Nc1ccc(-n2ccccc2=O)cc1)c1cc(F)c(F)c(F)c1 [6j, 3,4,5-trifluoro-N-(2-((4-(2-oxopyridin-1(2H)-yl)phenyl)arbamoyl)phenyl)benzamide] | < 6.00 | > 250 °C |  |
| Cc1cccc(C(=O)Nc2ccc(-n3ccccc3=O)cc2)c1NC(=O)c1ccc(Cl)cc1Cl [6k-c, 2-(2,4-dichlorobenzamido)-3-methyl-N-(4-(2-oxopyrid-in-1(2H)-yl)phenyl)benzamide] | < 6.00 | > 250 °C | poor IC50 values at a micromole level |
| O=C(Nc1ccccc1C(=O)Nc1ccc(N2CCOCC2=O)cc1)c1ccc(Cl)cc1Cl [6k-d, 2,4-dichloro-N-(2-((4-(3-oxomorpholino)phenyl)carba-moyl)phenyl)benzamide] | 6.89 | > 250 °C |  |
| O=C(Nc1ccc(Cl)cc1C(=O)Nc1ccc(N2CCOCC2=O)cc1)c1ccc(Cl)cc1Cl [6k-e, 2,4-dichloro-N-(4-chloro-2-((4-(3-oxomorpholino)phe-nyl)carbamoyl)phenyl)benzamide] | 6.59 | > 250 °C |  |
| Cc1ccc(NC(=O)c2ccc(Cl)cc2Cl)c(C(=O)Nc2ccc(N3CCOCC3=O)cc2)c1 [6k-f, 2,4-dichloro-N-(4-methyl-2-((4-(3-oxomorpholino)phe-nyl)carbamoyl)phenyl)benzamide] | 6.55 | > 250 °C |  |
